Read-outs that look alike come from different tables or passages of the source. Bridge positions count the residues as written; N and C are the ends. Peptide text beside a SMILES is read from it.
Assays:
[1] = tested on: PD-L1 antibody; test: Peptide antibody dissociation ELISA (PD-L1 antibody); type: binding; settings: for pH 5.4: pH 7.2 EC 50 ratio: pH 5.4 vs pH 7.2; for pH 6.0: pH 7.2 EC 50 ratio: pH 6.0 vs pH 7.2
Protocol: (§1) To begin, peptides were immobilized on neutravidin coated and blocked wells. […] After binding at 4 degrees the plates were washed extensively as before. Next the peptides were incubated with either neutral or acidic pH buffers for approximately 30 minutes and then washed again. The specifically peptide bound antibodies were detected by either anti-mouse Fc or anti-mouse kappa chain HRP conjugated antibodies using standard TMB-based chromogenic ELISA procedures. The effects of pH upon affinity were determined by standard EC50 analysis of each of the distinct pH dilution series binding curves and comparison of their respective EC50 values.

[2] = tested on: anti-mouse CTLA-4 antibody (clone 9D9); test: Peptide antibody dissociation ELISA (CTLA-4 antibody); type: binding; settings: for pH responsiveness: FIG. 11A-11C legend, unoptimized peptide candidates
Protocol: as §1

[3] = pH 5.4, read-out: EC50 [M] pH 5.4
[4] = pH 6.0, read-out: EC50 [M] pH 6.0
[5] = pH 7.2, read-out: EC50 [M] pH 7.2

EC50 [1, 3] [M]	pH 5.4: pH 7.2 EC 50 ratio [1]	EC50 [1, 4] [M]	pH 6.0: pH 7.2 EC 50 ratio [1]	EC50 [1, 5] [M]	EC50 [M] pH 7.2 ([2]; pH 7.2)	EC50 [M] pH 7.2 ([1]; pH 7.2)	Molecule	pH responsiveness [2]
3.9e-09	12.9	1.3e-09	4.3	3e-10	Inactive	–	CSCC[C@@H]1NC(=O)[C@H](CC(=O)O)NC(=O)[C@H](C(C)C)NC(=O)[C@@H](NC(=O)[C@H](Cc2c[nH]cn2)NC(=O)CNC(=O)CN)CSSC[C@@H](C(=O)N[C@@H](CCC(N)=O)C(=O)O)NC(=O)[C@H]([C@@H](C)O)NC(=O)[C@H](CCC(N)=O)NC(=O)[C@H](CCC(N)=O)NC(=O)[C@H](Cc2ccc(O)cc2)NC(=O)[C@H](Cc2ccccc2)NC(=O)[C@H](CC(=O)O)NC(=O)[C@H](C(C)C)NC1=O [Peptide 23] (H-GGHCVDMVDFYQQTCQ-OH; disulfide 4-15)	–
1.3e-09	6.6	5.6e-10	2.8	2e-10	–	–	CC(C)C[C@@H]1NC(=O)CNC(=O)[C@H](CO)NC(=O)[C@H](CCCCN)NC(=O)[C@H](CC(N)=O)NC(=O)[C@H](Cc2c[nH]cn2)NC(=O)[C@@H](NC(=O)CNC(=O)CN)CSSC[C@@H](C(=O)O)NC(=O)[C@H](Cc2ccc(O)cc2)NC(=O)[C@H](Cc2c[nH]cn2)NC(=O)[C@H](Cc2ccc(O)cc2)NC(=O)[C@H](Cc2ccccc2)NC1=O [Peptide 24] (H-GGCHNKSGLFYHYC-OH; disulfide 3-14)	–
–	–	9e-10	–	–	–	–	CC(C)C[C@H](NC(=O)[C@H](CCC(=O)O)NC(=O)[C@H](CCC(=O)O)NC(=O)[C@H](Cc1ccc(O)cc1)NC(=O)[C@H](Cc1ccccc1)NC(=O)[C@H](Cc1ccc(O)cc1)NC(=O)[C@H](CC(C)C)NC(=O)[C@@H]1CCCN1C(=O)[C@H](CO)NC(=O)[C@@H](NC(=O)[C@@H](N)CCC(N)=O)C(C)C)C(=O)N[C@@H](C)C(=O)O [Peptide 27]	–
1.5e-09	6.5	4.9e-10	2.1	2.3e-10	–	–	CC[C@H](C)[C@@H]1NC(=O)[C@H](CC(=O)O)NC(=O)[C@H](C(C)C)NC(=O)[C@H](CCC(N)=O)NC(=O)[C@@H]2CCCN2C(=O)[C@H](CCC(=O)O)NC(=O)[C@H](Cc2ccc(O)cc2)NC(=O)[C@H](Cc2ccccc2)NC(=O)[C@H]([C@@H](C)O)NC(=O)[C@H](CO)NC(=O)[C@@H](NC(=O)[C@H](CC(C)C)NC(=O)CNC(=O)CN)CSSC[C@@H](C(=O)N[C@@H](Cc2ccc(O)cc2)C(=O)O)NC1=O [Peptide 29] (H-GGLCSTFYEPQVDICY-OH; disulfide 4-15)	–
1.5e-09	–	3.6e-10	–	–	–	–	CC(C)[C@@H]1NC(=O)[C@@H](NC(=O)CNC(=O)CN)CSSC[C@@H](C(=O)O)NC(=O)[C@H](CC(=O)O)NC(=O)[C@@H]2CCCN2C(=O)[C@H](CCCNC(=N)N)NC(=O)[C@H](CCC(N)=O)NC(=O)[C@H](Cc2c[nH]cn2)NC(=O)[C@H](Cc2c[nH]cn2)NC(=O)[C@H](Cc2ccccc2)NC(=O)[C@H](Cc2ccccc2)NC(=O)[C@H](Cc2c[nH]cn2)NC1=O [Peptide 31]	–

Continued, molecule first:

Molecule	EC50 [1, 3] [M]	pH 5.4: pH 7.2 EC 50 ratio [1]	EC50 [1, 4] [M]	pH 6.0: pH 7.2 EC 50 ratio [1]	EC50 [1, 5] [M]	EC50 [M] pH 7.2 ([2]; pH 7.2)	EC50 [M] pH 7.2 ([1]; pH 7.2)	pH responsiveness [2]
CC[C@H](C)[C@H](NC(=O)[C@H](Cc1c[nH]cn1)NC(=O)[C@H](Cc1ccc(O)cc1)NC(=O)[C@@H](NC(=O)[C@H](CO)NC(=O)[C@@H]1CCCN1C(=O)[C@H](Cc1ccc(O)cc1)NC(=O)[C@H](Cc1ccccc1)NC(=O)[C@H](CC(C)C)NC(=O)[C@@H](N)CCC(N)=O)[C@@H](C)O)C(=O)N[C@H](C(=O)N[C@@H](CC(=O)O)C(=O)O)[C@@H](C)CC [Peptide 20] (H-QLFYPSTYHIID-OH)	8.4e-10	6.7	2.1e-10	1.7	1.3e-10	–	–	–
CSCC[C@H](NC(=O)CNC(=O)CN)C(=O)N[C@H]1CSSC[C@@H](C(=O)N[C@@H](CCC(N)=O)C(=O)O)NC(=O)[C@H](Cc2c[nH]c3ccccc23)NC(=O)[C@H](CC(N)=O)NC(=O)[C@H](CC(C)C)NC(=O)[C@H](CC(N)=O)NC(=O)[C@H](CO)NC(=O)[C@H](Cc2ccc(O)cc2)NC(=O)[C@H](Cc2ccccc2)NC(=O)[C@H](CC(C)C)NC(=O)[C@H](CCC(=O)O)NC(=O)[C@H](Cc2c[nH]cn2)NC1=O [Peptide 22] (H-GGMCHELFYSNLNWCQ-OH; disulfide 4-15)	3.5e-10	7.8	7e-11	1.5	4.5e-11	–	–	–
GGADCLLHDWDSACQI [Peptide 10, control in the PD-L1 antibody test]	–	–	–	–	–	–	Inactive	significant pH responsiveness
GGCFEEHEQLVFQTHC [Peptide 5]	–	–	–	–	–	–	–	significant pH responsiveness
GGCILPGQHESQAIAC [Peptide 6]	–	–	–	–	–	–	–	significant pH responsiveness
